Patent publication US20190388349A1, “NON-TOXIC VEHICLE TO SOLUBILIZE, DELIVER, AND OBTAIN BIOLOGICAL ACTIVITY OF STEROID HORMONES AT CELL, TISSUE, AND ORGAN TARGETS, IN VITRO AND IN VIVO” (Government of the United States as Represented by the …, priority 2017, published 2019)

Experiments:
[1] = system: MDA-MB-231 breast cancer cell; experiment: Cell death in MDA-MB-231 breast cancer cell cultures; format: cell-based; conditions: 25 μM β-AED, 25 μM β-AET, 5 nM E2; PEG 300 with LIPOFECTAMINE vehicle
Method: (§1) Hormone dependent, noninvasive, epithelial phenotype (ER/PR positive MCF-7 breast cancer cells) and hormone independent, invasive, mesenchymal phenotype (ER/PR negative MDA-MB-231 breast cancer cell) cell suspensions were acquired and prepared in complete medium (DMEM/F12, 10% FBS, 1% penicillin/streptomycin (Gibco)). Cellular concentration was adjusted to 2×10^5 cells/mL.
(§2) Androstene hormone solutions according to embodiments of the present invention were prepared from a first solution and a second solution. For the first solution, 3.0 mg of β-AED or β-AET was added to warm PEG 300 to prepare 50 mM stock. For the second solution, 10 μL of LIPOFECTAMINE (3:1 DOSPA: DOPE) was introduced to 100 μL of PEG 300, mixed, and incubated in a water bath at 42° C. for 30 min. The first and second solutions were then mixed in a sonicator water bath at 42° C. for 1 hr. The final concentration was 50 mM β-AED (or AET, as used).
(§3) A β-estradiol solution was also prepared by adding 2.7 mg of β-estradiol to 200 μL warmed PEG 300 with LIPOFECTAMINE and then further diluted 1:1000 with PEG-300. The final concentration was 50 μM.
A diluted β-AED (or β-AET) solution was prepared with complete medium at a final concentration of 50 μM (1:1000 dilute of 50 mM). Likewise, a diluted β-E2 solution was prepared with complete medium at a final concentration of 10 nM (1:5000 dilute of 50 μM). […]

[2] = system: MCF-7 breast cancer cells; experiment: Cell death and cell growth in MCF-7 breast cancer cell cultures; format: cell-based; conditions: 5 nM E2; for cell growth / cell density (microscopic photograph): MCF-7 grown for 5 days, 25 μM androstene hormone, PEG 300 with 5% LIPOFECTAMINE
Method: as §1, §2, §3
A diluted β-AED (or β-AET) solution was prepared with complete medium at a final concentration of 50 μM (1:1000 dilute of 50 mM). Likewise, a diluted β-E2 solution was prepared with complete medium at a final concentration of 10 nM (1:5000 dilute of 50 μM).
Using a 24-well plate, mixtures of 0.5 mL of cells per well with 0.5 mL of medium diluted hormone vehicle. Cell cultures were maintained at 90% humidity, 7% CO2, and 37° C.

293T cells = experiment: Biological function (phenotype, mobile cells) in 293T cells; format: cell-based, human; conditions: for mobile cells / mobile elements / processes (photograph): vehicle PEG 300 with LIPOFECTAMINE, 25 μM β-AED, 5 nM E2
Method: A non-toxic vehicle for administration of androstene hormones according to embodiments of the present invention was prepared from a first solution and a second solution. The first solution, comprising liposomal formulation, was placed in PEG 300 to a concentration of 5% and heated in a sonicating water bath to about 45° C. The second solution, comprising a selected hormone (one or more of 5Δ-androsten-3β, 17α-diol, 5Δ-androsten-3β, 17β-diol, or 5Δ-androsten-3β,7β,17β-triol), was placed in PEG 300 and heated in a sonicating water bath to about 45° C. The first and second solutions were then combine and stirred until dissolved.
Biological function was tested in 293T cells, which is a human embryonic cell line transformed with Large T antigen […] SV40. This hypotriploid (polyploid) cell line is particularly useful in such transformation studies and has very distinct phenotypes when grown. All androstene hormone treatment applications were at concentrations of 25 μM.

[3] = vehicle PEG 300 only, androstene hormone 25 μM

SMILES	MDA-MB-231 Cell Death Amount [1]	MCF7 Cell Death Amount ([2]; 25 μM β-AED, 25 μM β-AET, PEG 300 with LIPOFECTAMINE vehicle)	cell growth / cell density (microscopic photograph) [2]	mobile cells / cell processes (photograph) (293T cells; [3])	mobile cells / mobile elements / processes (photograph) (293T cells)	cell islands (photograph) (293T cells; [3])
C[C@]12CC[C@@H]3c4ccc(O)cc4CC[C@H]3[C@@H]1CC[C@@H]2O [E2, 17β-estradiol]	Not observed	Not observed	thick and similar to the cell growth of FIGS. 14 and 16	many more cell processes	many large islands with mobile processes, small islands with mobile process, and mobile cells forming interconnections with other elements	
C[C@]12CC[C@H]3[C@@H](CC=C4C[C@@H](O)CC[C@@]43C)[C@@H]1CC[C@@H]2O [β-AED, androst-5-ene-3β,17β-diol]			areas of decreased density	significant reduction in mobile cells	drastic decrease in, or morphological change, in mobile elements	larger
C[C@]12CC[C@H]3[C@@H]([C@@H](O)C=C4C[C@@H](O)CC[C@@]43C)[C@@H]1CC[C@@H]2O [β-AET, 5-androstene-3β,7β,17β-triol]			thick and similar to the cell growth of FIG. 14			
